Measured values from the NIST ThermoML archive (doi:10.1021/je060271a).
“And” between values parts separate entries of the source, which are not always exact repeats. Equal entries are not always repeated. Numbers after ± are expanded uncertainties.

Details: 283.14 K, Liquid, Vibrating tube method

CCCCCCC(=O)OCC(COC(=O)CCCCCC)(COC(=O)CCCCCC)COC(=O)CCCCCC [pentaerythritol tetraheptanoate]
mass density (99.9 kPa): 986 ± 1.2 kg/m3
mass density (100.4 kPa): 985.9 ± 1.2 kg/m3 and 986 ± 1.2 kg/m3
mass density (100.6 kPa): 985.8 ± 1.2 kg/m3
mass density (100.8 kPa): 985.9 ± 1.2 kg/m3
mass density (100.9 kPa): 985.9 ± 1.2 kg/m3
mass density (104.1 kPa): 985.9 ± 1.2 kg/m3
mass density (108.1 kPa): 985.9 ± 1.2 kg/m3
mass density (116.6 kPa): 986 ± 1.2 kg/m3
mass density (124.9 kPa): 986 ± 1.2 kg/m3
mass density (130.8 kPa): 986 ± 1.2 kg/m3
mass density (135.4 kPa): 985.9 ± 1.2 kg/m3
mass density (142 kPa): 985.9 ± 1.2 kg/m3
mass density (146.3 kPa): 986 ± 1.2 kg/m3
mass density (150.6 kPa): 986 ± 1.2 kg/m3
mass density (154.5 kPa): 986 ± 1.2 kg/m3
mass density (158.5 kPa): 986 ± 1.2 kg/m3
mass density (164.2 kPa): 986 ± 1.2 kg/m3
mass density (168.9 kPa): 985.9 ± 1.2 kg/m3
mass density (174.6 kPa): 986 ± 1.2 kg/m3
mass density (181.1 kPa): 986 ± 1.2 kg/m3
mass density (189.8 kPa): 986 ± 1.2 kg/m3
mass density (198.1 kPa): 986 ± 1.2 kg/m3
mass density (208.7 kPa): 986 ± 1.2 kg/m3
mass density (218.8 kPa): 986 ± 1.2 kg/m3
mass density (231 kPa): 985.9 ± 1.2 kg/m3
mass density (246.9 kPa): 986 ± 1.2 kg/m3
mass density (262.2 kPa): 986 ± 1.2 kg/m3
mass density (279.6 kPa): 985.9 ± 1.2 kg/m3
mass density (304.3 kPa): 985.9 ± 1.2 kg/m3
mass density (328.1 kPa): 986 ± 1.2 kg/m3
mass density (354.9 kPa): 986 ± 1.2 kg/m3
mass density (383.4 kPa): 986.2 ± 1.2 kg/m3
mass density (410.5 kPa): 986.1 ± 1.2 kg/m3
mass density (428.6 kPa): 986.2 ± 1.2 kg/m3
mass density (445.6 kPa): 986.1 ± 1.2 kg/m3
mass density (459.5 kPa): 986.2 ± 1.2 kg/m3
mass density (470.3 kPa): 986.1 ± 1.2 kg/m3
mass density (483.1 kPa): 986.2 ± 1.2 kg/m3
mass density (493.7 kPa): 986.2 ± 1.2 kg/m3
mass density (504.3 kPa): 986.1 ± 1.2 kg/m3
mass density (518.6 kPa): 986.2 ± 1.2 kg/m3
mass density (531.3 kPa): 986.2 ± 1.2 kg/m3
mass density (543.6 kPa): 986.2 ± 1.2 kg/m3
mass density (560.1 kPa): 986.2 ± 1.2 kg/m3
mass density (574.5 kPa): 986.2 ± 1.2 kg/m3
mass density (588.8 kPa): 986.2 ± 1.2 kg/m3
mass density (607.2 kPa): 986.2 ± 1.2 kg/m3
mass density (623.7 kPa): 986.2 ± 1.2 kg/m3
mass density (641.4 kPa): 986.2 ± 1.2 kg/m3
mass density (659.1 kPa): 986.3 ± 1.2 kg/m3
mass density (682.8 kPa): 986.3 ± 1.2 kg/m3
mass density (703.5 kPa): 986.3 ± 1.2 kg/m3
mass density (725 kPa): 986.2 ± 1.2 kg/m3
mass density (748.3 kPa): 986.2 ± 1.2 kg/m3
mass density (777.3 kPa): 986.4 ± 1.2 kg/m3
mass density (803.3 kPa): 986.3 ± 1.2 kg/m3
mass density (830.4 kPa): 986.3 ± 1.2 kg/m3
mass density (857.2 kPa): 986.4 ± 1.2 kg/m3
mass density (881.9 kPa): 986.4 ± 1.2 kg/m3
mass density (894.4 kPa): 986.4 ± 1.2 kg/m3
mass density (910.2 kPa): 986.5 ± 1.2 kg/m3
mass density (922.9 kPa): 986.5 ± 1.2 kg/m3
mass density (936.1 kPa): 986.4 ± 1.2 kg/m3
mass density (950.3 kPa): 986.3 ± 1.2 kg/m3
mass density (964.4 kPa): 986.4 ± 1.2 kg/m3
mass density (981.7 kPa): 986.3 ± 1.2 kg/m3
mass density (997.4 kPa): 986.4 ± 1.2 kg/m3
mass density (1013.2 kPa): 986.5 ± 1.2 kg/m3
mass density (1029.5 kPa): 986.4 ± 1.2 kg/m3
mass density (1046.2 kPa): 986.4 ± 1.2 kg/m3
mass density (1066 kPa): 986.6 ± 1.2 kg/m3
mass density (1084 kPa): 986.4 ± 1.2 kg/m3
mass density (1102.6 kPa): 986.5 ± 1.2 kg/m3
mass density (1119.8 kPa): 986.5 ± 1.2 kg/m3
mass density (1142.7 kPa): 986.6 ± 1.2 kg/m3
mass density (1162 kPa): 986.6 ± 1.2 kg/m3
mass density (1186.3 kPa): 986.5 ± 1.2 kg/m3
mass density (1207.3 kPa): 986.5 ± 1.2 kg/m3
mass density (1229.4 kPa): 986.6 ± 1.2 kg/m3
mass density (1252.5 kPa): 986.5 ± 1.2 kg/m3
mass density (1277.3 kPa): 986.7 ± 1.2 kg/m3
mass density (1301.1 kPa): 986.6 ± 1.2 kg/m3
mass density (1329.6 kPa): 986.7 ± 1.2 kg/m3
mass density (1354.8 kPa): 986.6 ± 1.2 kg/m3
mass density (1386.2 kPa): 986.6 ± 1.2 kg/m3
mass density (1412.2 kPa): 986.7 ± 1.2 kg/m3
mass density (1440.9 kPa): 986.6 ± 1.2 kg/m3
mass density (1469.5 kPa): 986.6 ± 1.2 kg/m3
mass density (1505.1 kPa): 986.6 ± 1.2 kg/m3
mass density (1536 kPa): 986.8 ± 1.2 kg/m3
mass density (1568.8 kPa): 986.7 ± 1.2 kg/m3
mass density (1609.6 kPa): 986.8 ± 1.2 kg/m3
mass density (1645.7 kPa): 986.8 ± 1.2 kg/m3
mass density (1682.5 kPa): 986.8 ± 1.2 kg/m3
mass density (1719 kPa): 986.8 ± 1.2 kg/m3
mass density (1765.3 kPa): 986.9 ± 1.2 kg/m3
mass density (1804.9 kPa): 986.9 ± 1.2 kg/m3
mass density (1848.1 kPa): 986.9 ± 1.2 kg/m3
mass density (1898.4 kPa): 986.8 ± 1.2 kg/m3
mass density (1940.3 kPa): 987 ± 1.2 kg/m3
mass density (1966.1 kPa): 986.9 ± 1.2 kg/m3
mass density (1976.7 kPa): 987 ± 1.2 kg/m3
mass density (1988.3 kPa): 987.1 ± 1.2 kg/m3
mass density (2001 kPa): 987 ± 1.2 kg/m3
mass density (2021 kPa): 987 ± 1.2 kg/m3
mass density (2110 kPa): 987 ± 1.2 kg/m3
mass density (2201.2 kPa): 987.1 ± 1.2 kg/m3
mass density (2343.8 kPa): 987.2 ± 1.2 kg/m3
mass density (2462.5 kPa): 987.4 ± 1.2 kg/m3
mass density (2487.8 kPa): 987.3 ± 1.2 kg/m3
mass density (2506.9 kPa): 987.3 ± 1.2 kg/m3
